Assay results from ChEMBL document CHEMBL1201862, “PubChem BioAssay data set” (2004).
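Cultured in 96-well plates, cells were exposed to test compound for 48 hours across five concentrations. GI50 is the concentration that inhibits growth by half.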 Active and inactive are the calls of the source. No stated cut-off is given here; in the data, active = GI50 up to about 1.1 µM and inactive = higher. Starred links: 1 amine or outer side, 2 acyl side, 3 side chain; linkers in the order of their positions; H or OH if unused. Positions of bridges follow the written chain, without caps; N, C: chain ends. Non-standard residues stand in square brackets, D forms with d. Residues, ends and D or L forms follow the SMILES beside them. ξ: configuration not given here. *: point of attachment. γ4hArg(2R,3R-(OH)2) = N=C(N)NCCC[C@H](N[*:1])[C@@H](O)[C@@H](O)C(=O)[*:2]; Gln(3S,4R-Me2) = C[C@H]([C@H](N)C(=O)O)[C@@H](C)C(N)=O; X50 = CC(C)C[C@H](C)[C@@H](O)[C@@H](C)C(=O)*; X51 = COC(c1ccc(O)cc1)C(N[*:1])C(=O)[*:2]; NMeQ = CN[C@@H](CCC(N)=O)C(=O)O; Thr(3ξ) = CC(O)[C@H](N)C(=O)O; NMeA = CN[C@@H](C)C(=O)O

Tests used:
Experiment in all cases: inhibition of tumour cell growth, NCI panel, 48 h
[1] = test system: SW-620
[2] = test system: SK-MEL-5
[3] = test system: OVCAR-3
[4] = test system: SF-268
[5] = test system: HCT-116
[6] = test system: HOP-62
[7] = test system: 786-0
[8] = test system: BT-549
[9] = test system: TK-10
[10] = test system: SK-MEL-2
[11] = test system: SR
[12] = test system: UACC-257
[13] = test system: U-251
[14] = test system: Hs-578T
[15] = test system: COLO 205
[16] = test system: HOP-92
[17] = test system: SF-539
[18] = test system: UO-31
[19] = test system: OVCAR-5
[20] = test system: HCC 2998

| SMILES | GI50 [1] | GI50 [2] | GI50 [3] | GI50 [4] | GI50 [5] | GI50 [6] | GI50 [7] | GI50 [8] | GI50 [9] | GI50 [10] | GI50 [11] | GI50 [12] | GI50 [13] | GI50 [14] | GI50 [15] | GI50 [16] | GI50 [17] | GI50 [18] | GI50 [19] | GI50 [20] |
| --- | --- | --- | --- | --- | --- | --- | --- | --- | --- | --- | --- | --- | --- | --- | --- | --- | --- | --- | --- | --- |
| CCOP(=O)(OCC)C(Nc1ccc(F)cc1)c1ccccc1 (stereo not given) | > 100 µM (inactive) | > 100 µM (inactive) | > 100 µM (inactive) | > 100 µM (inactive) | > 100 µM (inactive) | > 100 µM (inactive) | > 100 µM (inactive) | 79.6 µM (inactive) | > 100 µM (inactive) | > 100 µM (inactive) | 97.7 µM (inactive) | > 100 µM (inactive) | > 100 µM (inactive) | > 100 µM (inactive) | > 100 µM (inactive) | 94.6 µM (inactive) | > 100 µM (inactive) | 82.2 µM (inactive) | > 100 µM (inactive) | > 100 µM (inactive) |
| CCOC(=O)CN1C(=O)c2cc([N+](=O)[O-])cc3cc([N+](=O)[O-])cc(c23)C1=O | 68.5 µM (inactive) | 27.3 µM (inactive) | 23.2 µM (inactive) | 18.4 µM (inactive) | 15 µM (inactive) | > 100 µM (inactive) | 48.8 µM (inactive) | > 28.6 µM (inactive) | > 100 µM (inactive) | 22.5 µM (inactive) | 1.45 µM (inactive) | 73.8 µM (inactive) | > 88.5 µM (inactive) | > 100 µM (inactive) | 24.7 µM (inactive) | > 77.8 µM (inactive) | 20 µM (inactive) | 28.7 µM (inactive) | > 100 µM (inactive) | > 100 µM (inactive) |
| O=C1Nc2ccccc2/C1=N/N1C(=O)/C(=C/c2ccccc2S)N=C1c1ccccc1 | 71.1 µM (inactive) | 81.8 µM (inactive) | 33.4 µM (inactive) | > 100 µM (inactive) | 99.8 µM (inactive) | > 100 µM (inactive) | 79.8 µM (inactive) | 91 µM (inactive) | > 100 µM (inactive) | 42.4 µM (inactive) | 21.3 µM (inactive) | > 100 µM (inactive) | 67.6 µM (inactive) | > 100 µM (inactive) | 76 µM (inactive) | 77.6 µM (inactive) | > 100 µM (inactive) | 61.4 µM (inactive) | > 100 µM (inactive) | > 100 µM (inactive) |
| CCOC(=O)C(CCc1ncnc2c1ncn2Cc1ccccc1)(CCc1ncnc2c1ncn2Cc1ccccc1)C(=O)OCC | > 100 µM (inactive) | 48.5 µM (inactive) | 90.8 µM (inactive) | 69.5 µM (inactive) | 51.4 µM (inactive) | > 100 µM (inactive) | 41.1 µM (inactive) | 76.6 µM (inactive) | 82.6 µM (inactive) | 44.1 µM (inactive) | 26.4 µM (inactive) | 31.7 µM (inactive) | 62.1 µM (inactive) | 83.2 µM (inactive) | 24.2 µM (inactive) | 69.7 µM (inactive) | 30.3 µM (inactive) | 2.64 µM (inactive) | > 100 µM (inactive) | 19.9 µM (inactive) |
| COc1ccc(/C(CC2OC(=O)c3ccccc32)=N\NC(N)=O)cc1 (stereo not given) | > 100 µM (inactive) | > 100 µM (inactive) | > 100 µM (inactive) | > 100 µM (inactive) | > 100 µM (inactive) | > 100 µM (inactive) | > 100 µM (inactive) | > 100 µM (inactive) | > 100 µM (inactive) | > 100 µM (inactive) | > 100 µM (inactive) | > 100 µM (inactive) | > 100 µM (inactive) | > 100 µM (inactive) | > 100 µM (inactive) | > 100 µM (inactive) | > 100 µM (inactive) | > 100 µM (inactive) | > 100 µM (inactive) | > 100 µM (inactive) |
| C=C(Cl)C(C)(Cl)CCC(Br)C(C)(C)Cl (stereo not given) | 16.9 µM (inactive) | 16.9 µM (inactive) | 18.2 µM (inactive) | 33.2 µM (inactive) | 15.2 µM (inactive) | 22 µM (inactive) | 17.5 µM (inactive) | 20.6 µM (inactive) | > 100 µM (inactive) | 19.3 µM (inactive) | 21.9 µM (inactive) | 15.9 µM (inactive) | 15.9 µM (inactive) | 21.2 µM (inactive) | 17.3 µM (inactive) | 18.8 µM (inactive) | 27.8 µM (inactive) | 15.4 µM (inactive) | 21.5 µM (inactive) | 19.5 µM (inactive) |
| CC(C)(C)OC(=O)N(O)[C@@H]1CC[C@H](n2cnc3c(N)ncnc32)C1 | > 100 µM (inactive) | > 100 µM (inactive) | > 100 µM (inactive) | > 100 µM (inactive) | > 100 µM (inactive) | > 100 µM (inactive) | > 100 µM (inactive) | > 100 µM (inactive) | > 100 µM (inactive) | > 100 µM (inactive) | > 100 µM (inactive) | > 100 µM (inactive) | > 100 µM (inactive) | > 100 µM (inactive) | > 100 µM (inactive) | > 100 µM (inactive) | > 100 µM (inactive) | 96.8 µM (inactive) | > 100 µM (inactive) | > 100 µM (inactive) |
| CC1=[N+](C)CCN1C | > 100 µM (inactive) | > 100 µM (inactive) | > 100 µM (inactive) | > 100 µM (inactive) | > 100 µM (inactive) | > 100 µM (inactive) | > 100 µM (inactive) | > 100 µM (inactive) | > 100 µM (inactive) | > 100 µM (inactive) | > 100 µM (inactive) | > 100 µM (inactive) | > 100 µM (inactive) | > 100 µM (inactive) | > 100 µM (inactive) | > 100 µM (inactive) | > 100 µM (inactive) | > 100 µM (inactive) | > 100 µM (inactive) | > 100 µM (inactive) |
| CC(C)NC(=O)OCc1c(COC(=O)NC(C)C)n(C)c2c1ccc1ccccc12 | 1.37 µM (inactive) | 2.34 µM (inactive) | 2.97 µM (inactive) | 1.9 µM (inactive) | 1.45 µM (inactive) | 4.75 µM (inactive) | 1.21 µM (inactive) | 0.398 µM (active) | 1.63 µM (inactive) | 1.78 µM (inactive) | 0.57 µM (active) | 1.52 µM (inactive) | 1.63 µM (inactive) | 0.971 µM (active) | 1.84 µM (inactive) | 1.16 µM (inactive) | 1.68 µM (inactive) | 1.9 µM (inactive) | 2.97 µM (inactive) | 2.88 µM (inactive) |
| Cn1c(=O)c2sc3c4sc5c(=O)n(C)c6ccccc6c5c4sc3c2c2ccccc21 | > 100 µM (inactive) | > 100 µM (inactive) | > 100 µM (inactive) | > 100 µM (inactive) | > 100 µM (inactive) | 46.5 µM (inactive) | 38.1 µM (inactive) | > 100 µM (inactive) | > 100 µM (inactive) | > 100 µM (inactive) | 66.4 µM (inactive) | > 100 µM (inactive) | 47.5 µM (inactive) | 56.5 µM (inactive) | > 100 µM (inactive) | 90.8 µM (inactive) | > 100 µM (inactive) | > 100 µM (inactive) | > 100 µM (inactive) | > 100 µM (inactive) |
| COC(c1ccc(O)cc1)C1NC(=O)[C@H](CCC(N)=O)N(C)C(=O)[C@H](CC(C)C)NC(=O)[C@@H](CCCN=C(N)N)NC(=O)[C@H](C(C)O)NC(=O)[C@@H](NC(=O)[C@@H](NC(=O)[C@H](O)[C@H](O)[C@H](CCCN=C(N)N)NC(=O)[C@H](C)NC(=O)[C@H](C)[C@H](O)[C@@H](C)CC(C)C)[C@@H](C)[C@@H](C)C(N)=O)[C@@H](C)OC(=O)[C@H](C)N(C)C1=O (stereo partly drawn) (X50-A[γ4hArg(2R,3R-(OH)2)][Gln(3S,4R-Me2)]T[Thr(3ξ)][dR]L[NMeQ][X51][NMeA]; ester 4-C) | 0.137 µM (active) | 0.0682 µM (active) | 0.083 µM (active) | 0.0525 µM (active) | 0.281 µM (active) | 0.15 µM (active) | 0.204 µM (active) | 0.242 µM (active) | 0.146 µM (active) | 0.247 µM (active) | 0.143 µM (active) | 0.113 µM (active) | 0.121 µM (active) | 0.0405 µM (active) | 0.0881 µM (active) | 0.138 µM (active) | 0.0859 µM (active) | 0.249 µM (active) | 0.167 µM (active) | 0.0877 µM (active) |
